Columns and labels:
[1] = tested on: primary human mesenchymal stem cells (hMSCs); experiment: Induction of chondrogenesis in primary human mesenchymal stem cells (hMSCs), nodule imaging with Rhodamine B / Nile Red; assay type: cell-based; conditions: for Emax: hMSCs chondrogenesis, TGF-β3 (10 ng/mL) as positive control, read-out: Max. Activity as % TGF-β3 activity; for EC50: hMSCs, concentration required to induce 50% levels of chondrogenesis vs TGF-β3 positive control, read-out: Conc (nM) of 50% TGF-β3 activity
Experimental: Representative compounds were screened using primary human mesenchymal stem cells (hMSCs) to determine their ability to induce chondrogenesis (process by which cartilage is developed).
Human Mesenchymal Stem Cell Culture: Primary human mesenchymal stem cells (hMSCs) were purchased from Lonza (Walkersville, Md.) and expanded in Mesenchymal Stem Cell Growth Media (Lonza). Cells between passage 3 and 6 were used for the experiments.
Compound Screening: Each compound was dissolved in DMSO as a 10 mM stock and used to prepare compound source plates. For the 96 well assay, serial dilution (1:3, 6-point dose-response curves from 2700 nM to 10 nM) and compound transfer was performed using the ECHO 550 (Labcyte, Sunnyvale, Calif.) into 96-well clear bottom assay plates (Greiner Bio-One) with appropriate DMSO backfill for a final DMSO concentration of 0.03%. hMSCs were plated at 20,000 cells/well in 250 μL/well Incomplete Chondrogenic Induction Medium (Lonza; DMEM, dexamethasone, ascorbate, insulin-transferrin-selenium [ITS supplement], gentamycin-amphotericin [GA-1000], sodium pyruvate, proline and L-glutamine). TGF-β3 (10 ng/mL) was used as a positive control for differentiation while negative control wells were treated with 75 nL DMSO for normalization and calculating EC50 values. For the 384 well assay, serial dilution (1:3, 8-point dose-response curves from 5000 nM to 2.2 nM) and compound transfer was performed using the ECHO 550 (Labcyte, Sunnyvale, Calif.) into 384-well clear bottom assay plates (Greiner Bio-One) with appropriate DMSO backfill for a final DMSO concentration of 0.03%. hMSCs were plated at 8,000 cells/well in 80 μL/well Incomplete Chondrogenic Induction Medium (Lonza; DMEM, dexamethasone, ascorbate, insulin-transferrin-selenium [ITS supplement], gentamycin-amphotericin [GA-1000], sodium pyruvate, proline and L-glutamine). TGF-β3 (10 ng/mL) was used as a positive control for differentiation while negative control wells were treated with 25 nL DMSO for normalization and calculating EC50 values. Cells were incubated at 37° C. and 5% CO2 for 6 days. To image chondrogenic nodules, the cells were fixed using 4% formaldehyde (Electron Microscopy Sciences), and stained with 2 μg/mL Rhodamine B (Sigma-Aldrich) and 20 μM Nile Red (Sigma-Aldrich) [Johnson K., et.al, A Stem Cell-Based Approach to Cartilage Repair, Science, (2012), 336(6082). 717-721]. The nodules imaged (25 images per well for 96 well plates and 9 images per well for 384 well plates at 10× magnification) by excitation at 531 nm and emission at 625 nm and quantified using the CellInsight CX5 (Thermo Scientific). Area of nodules in each well was normalized to the average of 3 DMSO treated wells on the same plate using Excel (Microsoft Inc.). The normalized averages (fold change over DMSO) of 2 or 3 replicate wells for each compound concentration were calculated. Due to solubility limitations of some of the compounds, curve fitting was incomplete leading to inaccurate EC50 determinations.
Using TGF-β3 as a positive control, the concentration of representative compounds required to induce 50% levels of chondrogenesis is reported. In addition, the maximum activity of each compound and the respective dose that each compound reached maximum chondrogenesis activity is reported.

[2] = tested on: Wnt activity (Sp5-Luc reporter, human Sp5 promoter with eight TCF/LEF binding sites) in SW480 colon carcinoma cells; experiment: Screening assay for Wnt activity: Sp5-Luc reporter gene assay in SW480 cells; assay type: cell-based; conditions: for inhibition at 10 µM: read-out: percent inhibition at 10 μM (given for EC50 of >10 μM); for EC50: 10-point dose-response starting from 10 μM, overnight incubation
How it was run: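 Luminescence (BrightGlo) read after overnight 37 °C exposure of Sp5-Luc SW480 reporter cells, 4,000/well in 1% FBS, to compound dosed 1:3 over 10 points from 10 μM with 0.1% DMSO. Values normalized to DMSO-only cells, fitted with variable-slope four-parameter model; where EC50 exceeds 10 μM, % inhibition at 10 μM reported.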

Row | EC50 [1] [nM] | EC50 [2] [µM] | SMILES | Emax [1] [%] | inhibition at 10 µM [2] [%]
1 | 10 | > 10 | CC(C)C(=O)Nc1cncc(-c2ccc3[nH]nc(-c4nc5c(-c6ccccc6F)cncc5[nH]4)c3n2)c1 [Compound 65, N-(5-(3-(7-(2-fluorophenyl)-3H-imidazo[4,5-c]pyridin-2-yl)-1H-pyrazolo[4,3-b]pyridin-5-yl)pyridin-3-yl)isobutyramide] | 181 | 1
2 | 30 | > 10 | c1cncc(-c2ccc3[nH]nc(-c4nc5c(-c6cccnc6)cncc5[nH]4)c3n2)c1 [Compound 88, 5-(Pyridin-3-yl)-3-(7-(pyridin-3-yl)-3H-imidazo[4,5-c]pyridin-2-yl)-1H-pyrazolo[4,3-b]pyridine] | 84 | 28
3 | 1670 | > 10 | CC(C)C(=O)Nc1cncc(-c2ccc3[nH]nc(-c4nc5c(-c6cccnc6)cncc5[nH]4)c3n2)c1 [Compound 93, N-(5-(3-(7-(Pyridin-3-yl)-3H-imidazo[4,5-c]pyridin-2-yl)-1H-pyrazolo[4,3-b]pyridin-5-yl)pyridin-3-yl)isobutyramide] | 336 | 18.3
4 | 30 | > 10 | Cc1ccncc1-c1ccc2[nH]nc(-c3nc4c(-c5ccncc5)cncc4[nH]3)c2n1 [Compound 117, 5-(4-Methylpyridin-3-yl)-3-(7-(pyridin-4-yl)-3H-imidazo[4,5-c]pyridin-2-yl)-1H-pyrazolo[4,3-b]pyridine] | 68 | 23.1
5 |  | > 10 | CCCC(=O)Nc1cncc(-c2ccc3[nH]nc(-c4nc5c(-c6ccncc6)cncc5[nH]4)c3n2)c1 [Compound 129, N-(5-(3-(7-(Pyridin-4-yl)-3H-imidazo[4,5-c]pyridin-2-yl)-1H-pyrazolo[4,3-b]pyridin-5-yl)pyridin-3-yl)butyramide] | 31 | 0
6 |  | > 10 | CCNCc1cncc(-c2ccc3[nH]nc(-c4nc5c(-c6ccccn6)cncc5[nH]4)c3n2)c1 [Compound 146, N-((5-(3-(7-(Pyridin-2-yl)-3H-imidazo[4,5-c]pyridin-2-yl)-1H-pyrazolo[4,3-b]pyridin-5-yl)pyridin-3-yl)methyl)ethanamine] | 50 | 14.2
7 | 30 | > 10 | CCCCC(=O)Nc1cncc(-c2ccc3[nH]nc(-c4nc5c(-c6ccccn6)cncc5[nH]4)c3n2)c1 [Compound 159, N-(5-(3-(7-(Pyridin-2-yl)-3H-imidazo[4,5-c]pyridin-2-yl)-1H-pyrazolo[4,3-b]pyridin-5-yl)pyridin-3-yl)pentanamide] | 86 | 1
8 | 900 | > 10 | CCC(=O)Nc1cncc(-c2ccc3[nH]nc(-c4nc5c(N6CCCCC6)cncc5[nH]4)c3n2)c1 [Compound 169, N-(5-(3-(7-(Piperidin-1-yl)-3H-imidazo[4,5-c]pyridin-2-yl)-1H-pyrazolo[4,3-b]pyridin-5-yl)pyridin-3-yl)propionamide] | 70 | 2.3
9 | 900 | > 10 | CN(C)Cc1cncc(-c2ccc3[nH]nc(-c4nc5c(N6CCCCC6)cncc5[nH]4)c3n2)c1 [Compound 181, N,N-Dimethyl-1-(5-(3-(7-(piperidin-1-yl)-3H-imidazo[4,5-c]pyridin-2-yl)-1H-pyrazolo[4,3-b]pyridin-5-yl)pyridin-3-yl)methanamine] | 84 | 33.1
10 | 100 | > 10 | Cc1cn(-c2cncc3[nH]c(-c4n[nH]c5ccc(-c6cncc(NC(=O)CC(C)C)c6)nc45)nc23)cn1 [Compound 198, 3-Methyl-N-(5-(3-(7-(4-methyl-1H-imidazol-1-yl)-3H-imidazo[4,5-c]pyridin-2-yl)-1H-pyrazolo[4,3-b]pyridin-5-yl)pyridin-3-yl)butanamide] | 59 | 1.8
11 | 100 | > 10 | Cc1cn(-c2cncc3[nH]c(-c4n[nH]c5ccc(-c6cncc(NC(=O)C(C)(C)C)c6)nc45)nc23)cn1 [Compound 204, N-(5-(3-(7-(4-methyl-1H-imidazol-1-yl)-3H-imidazo[4,5-c]pyridin-2-yl)-1H-pyrazolo[4,3-b]pyridin-5-yl)pyridin-3-yl)pivalamide] | 150 | 0
12 | 2700 | > 10 | Cc1cn(-c2cncc3[nH]c(-c4n[nH]c5ccc(-c6cncc(CN7CCCC7)c6)nc45)nc23)cn1 [Compound 210, 3-(7-(4-Methyl-1H-imidazol-1-yl)-3H-imidazo[4,5-c]pyridin-2-yl)-5-(5-(pyrrolidin-1-ylmethyl)pyridin-3-yl)-1H-pyrazolo[4,3-b]pyridine] | 65 | 3.5
13 |  | > 10 | Cc1cn(-c2cncc3[nH]c(-c4n[nH]c5ccc(-c6cncc(NC(=O)C7CCC7)c6)nc45)nc23)cn1 [Compound 217, N-(5-(3-(7-(4-Methyl-1H-imidazol-1-yl)-3H-imidazo[4,5-c]pyridin-2-yl)-1H-pyrazolo[4,3-b]pyridin-5-yl)pyridin-3-yl)cyclobutanecarboxamide] | 47 | 6.7
14 | 30 | > 10 | CN1CCN(c2cncc3[nH]c(-c4n[nH]c5ccc(-c6cncc(N)c6)nc45)nc23)CC1 [Compound 227, 5-(3-(7-(4-Methylpiperazin-1-yl)-3H-imidazo[4,5-c]pyridin-2-yl)-1H-pyrazolo[4,3-b]pyridin-5-yl)pyridin-3-amine] | 65 | 16.3
15 |  | > 10 | CC(C)C(=O)Nc1cncc(-c2ccc3[nH]nc(-c4nc5c(N6CCN(C)CC6)cncc5[nH]4)c3n2)c1 [Compound 233, N-(5-(3-(7-(4-Methylpiperazin-1-yl)-3H-imidazo[4,5-c]pyridin-2-yl)-1H-pyrazolo[4,3-b]pyridin-5-yl)pyridin-3-yl)isobutyramide] | 47 | 6.2
16 |  | > 10 | CCNCc1cncc(-c2ccc3[nH]nc(-c4nc5c(-c6ccoc6)cncc5[nH]4)c3n2)c1 [Compound 286, N-((5-(3-(7-(Furan-3-yl)-3H-imidazo[4,5-c]pyridin-2-yl)-1H-pyrazolo[4,3-b]pyridin-5-yl)pyridin-3-yl)methyl)ethanamine] | 29 | 37.4
17 | 10 | > 10 | CCCCC(=O)Nc1cncc(-c2ccc3[nH]nc(-c4nc5c(-c6ccoc6)cncc5[nH]4)c3n2)c1 [Compound 299, N-(5-(3-(7-(Furan-3-yl)-3H-imidazo[4,5-c]pyridin-2-yl)-1H-pyrazolo[4,3-b]pyridin-5-yl)pyridin-3-yl)pentanamide] | 74 | 14.7
18 | 30 | > 10 | CCC(=O)Nc1cncc(-c2ccc3[nH]nc(-c4nc5c(-c6cccs6)cncc5[nH]4)c3n2)c1 [Compound 309, N-(5-(3-(7-(Thiophen-2-yl)-3H-imidazo[4,5-c]pyridin-2-yl)-1H-pyrazolo[4,3-b]pyridin-5-yl)pyridin-3-yl)propionamide] | 80 | 2.4
